Assay results: patent US8052963B2, “[(4-oxo-4H-chromen-3-yl)hydroxymethyl]- or [(4-oxo-4H-chromen-3-yl)methyl]phosphonic acid derivatives” (Merck Patent Gesellschaft mit beschrankter Haftung, priority 2006, dated 2011)

Assay: TEAC assay (trolox equivalent antioxidant activity assay)
Settings: absorption at 734 nm measured after 6 minutes; relative to trolox = 1.0
Description: • a) The basis for the determination of the antioxidative efficacy is the so-called DPPH test, as described in Bünger et al. [Buenger, J., Ackermann, H., Jentzsch, A., Mehling, A., Pfizner, I., Reiffen, K.-A., Schroeder, K.-R., and Wollenweber U., An interlaboratory comparison of methods used to assess antioxidant potentials, Int. J. Cosm. Sci., 28 (2006) 1-12]. The anti-oxidative efficacy of [(7,8-dihydroxy-4-oxo-4H-chromen-3-yl)hydroxy-methyl]phosphonic acid is determined in the DPPH test. […] J. Cosm. Sci., 28 (2006), 1-12].
ABTS [2,2′-azinobis(3-ethylbenzothiazoline-6-sulfonic acid)] reacts with potassium peroxodisulfate by generating a stable free-radical cation which absorbs at 734 nm. The antioxidant measured reduces the free-radical cation and thus causes a weakening of the absorption capacity at 734 nm. The absorption is measured after a fixed time span of 6 minutes. The anti-oxidative potential of the substance measured is indicated as activity compared with trolox. The substance measured may be present dissolved in water or ethanol during the measurement.

Row | SMILES | antioxidative potential, activity compared with trolox (TEAC)
1 | O=c1c(C(O)P(=O)(O)O)coc2c(O)c(O)ccc12 (centres unmarked) [Example 1, [(7,8-dihydroxy-4-oxo-4H-chromen-3-yl)-hydroxymethyl]phosphonic acid] | 0.93
2 | Cc1c(C)c2c(c(C)c1O)CCC(C)(C(=O)O)O2 (centres unmarked) [trolox, reference compound] | 1.0
